In PMC9454848, “BMS-986158, a Small Molecule Inhibitor of the Bromodomain and Extraterminal Domain Proteins, in Patients with Selected Advanced Solid Tumors: Results from a Phase 1/2a Trial” (Cancers, 2022):
“Also recorded” adds a separate entry of the source. Like-named read-outs stand apart in the source and are kept apart here.

Key:
[1] = Plasma pharmacokinetics after multiple doses (cycle 2, steady state), LC-MS/MS; format: in vivo, human; settings: for AUC(0-t) / half-life / Tmax / Cmax: human, plasma, oral
Protocol: At C1D1 in every dosing schedule cohort, a single dose was administered followed by 168 h (i.e., 7 days) of intensive PK sampling. Following cycle 1, the multiple-dose treatment schedules (described above) began in cycle 2. PK parameters were derived following single dose combined across all schedules and multiple doses at cycle 2 for each schedule. […] PK assessments were evaluated for BMS-986158 and its metabolite using plasma samples at regular intervals. Both the parent and metabolite samples were simultaneously analyzed using a validated liquid chromatography and tandem mass spectrometry assay.
(§1) All treated patients who received ≥1 dose of BMS-986158 were evaluated in the safety population. […] All treated patients with available and sufficient serum or plasma samples for the corresponding analytes were included in the PK analyses. […] ECG parameters were evaluated in a categorical analysis, and linear mixed-effects regression modeling was used to describe the quantitative relationship between ΔQTcF and time-matched serum concentrations of BMS-986158 or its metabolite at a single dose.

[2] = system: patients with advanced solid tumors; assay: ECG ΔQTcF exposure-response at single dose; format: in vivo
Protocol: Triplicate ECG measures were used to assess changes from baseline in the QT interval adjusted for heart rate using Fridericia’s formula (ΔQTcF) following a single dose of BMS-986158 at C1D1. ΔQTcF was evaluated in the context of exposure response for BMS-986158 and its metabolite of interest.
as §1

HEXIM1 mRNA = assay: Change from baseline in gene expression, HEXIM1; format: in vivo, human; settings: patients; by dose
Protocol: Summary changes from baseline in the expression of BET-regulated genes were assessed in tumor tissues and blood collected at baseline and multiple on-treatment time points after BMS-986158 administration following the 3 dosing schedules. The study also assessed summary percent changes from baseline in expression of BET-regulated genes in peripheral blood and tumors (such as HEXIM1 and C-MYC). Tissue and peripheral blood samples (at baseline and on treatment) were collected for genomic, transcriptomic, and epigenetic analyses (by DNA or mRNA) to assess pharmacodynamic changes in BET-regulated genes. These samples were analyzed using whole-exome sequencing, real-time quantitative polymerase chain reaction, and RNA-sequencing methods.
All treated patients with available biomarker measurements at baseline and ≥1 time point were included in the biomarker analyses. Blood and tumor tissue samples were collected at baseline, during treatment, and at end of treatment for biomarker analysis. Markers of selected BET-regulated genes (e.g., HEXIM1) were analyzed with summary statistics for percent changes in expression from available matched pre- and on-treatment samples over time relative to baseline. Statistically significant changes in gene expression were determined using the Benjamini–Hochberg procedure to calculate an adjusted p value with an α level of 0.05.

CL/F at steady state, geometric mean, range across doses ([1]; Schedule A): 4.60 to 5.41 mL/min
CL/F at steady state, geometric mean, range across doses ([1]; Schedule B): 3.76 to 9.72 mL/min
CL/F at steady state, geometric mean, range across doses ([1]; Schedule C): 3.89 to 6.65 mL/min
AUC(0-t) ([1]; 0.75 mg, multiple dose, steady state, Schedule A (5 days on, 2 days off), 0.75 mg, n = 3, read-out: AUC(0–24), GM (%CV)): 2720 ng·h/mL
half-life ([1]; 0.75 mg, multiple dose, steady state, Schedule A (5 days on, 2 days off), 0.75 mg, n = 3, read-out: Effective T1/2, mean (SD) (converted)): 36 h
AUC(0-t) ([1]; 0.75 mg, multiple dose, steady state, Schedule A (5 days on, 2 days off), 0.75 mg, n = 4, read-out: AUC(0–T), GM (%CV)): 3450 ng·h/mL
Tmax ([1]; 0.75 mg, multiple dose, steady state, Schedule A (5 days on, 2 days off), 0.75 mg, n = 4, read-out: Tmax, median (range)): 3.14 h
Cmax ([1]; 0.75 mg, multiple dose, steady state, Schedule A (5 days on, 2 days off), n = 4): 136 ng/mL
AUC(0-t) ([1]; 1.25 mg, multiple dose, steady state, Schedule A (5 days on, 2 days off), 1.25 mg, n = 1, read-out: AUC(0–24), GM (%CV)): 3850 ng·h/mL
AUC(0-t) ([1]; 1.25 mg, multiple dose, steady state, Schedule A (5 days on, 2 days off), 1.25 mg, n = 4, read-out: AUC(0–T), GM (%CV)): 4960 ng·h/mL
Tmax ([1]; 1.25 mg, multiple dose, steady state, Schedule A (5 days on, 2 days off), 1.25 mg, n = 4, read-out: Tmax, median (range)): 1.5 h
Cmax ([1]; 1.25 mg, multiple dose, steady state, Schedule A (5 days on, 2 days off), n = 4): 284 ng/mL
AUC(0-t) ([1]; 2 mg, multiple dose, steady state, Schedule A (5 days on, 2 days off), 2.0 mg, n = 7, read-out: AUC(0–T), GM (%CV)): 7610 ng·h/mL
Tmax ([1]; 2 mg, multiple dose, steady state, Schedule A (5 days on, 2 days off), 2.0 mg, n = 7, read-out: Tmax, median (range)): 2 h
Cmax ([1]; 2 mg, multiple dose, steady state, Schedule A (5 days on, 2 days off), n = 7): 442 ng/mL
AUC(0-t) ([1]; 2 mg, multiple dose, steady state, Schedule B (14 days on, 7 days off), 2.0 mg, n = 1, read-out: AUC(0–24), GM (%CV)): 3430 ng·h/mL
AUC(0-t) ([1]; 2 mg, multiple dose, steady state, Schedule B (14 days on, 7 days off), 2.0 mg, n = 1, read-out: AUC(0–T), GM (%CV)): 6320 ng·h/mL
half-life ([1]; 2 mg, multiple dose, steady state, Schedule B (14 days on, 7 days off), 2.0 mg, n = 1, read-out: Effective T1/2, mean (SD) (converted)): 14.4 h
Tmax ([1]; 2 mg, multiple dose, steady state, Schedule B (14 days on, 7 days off), 2.0 mg, n = 1, read-out: Tmax, median (range)): 1 h
Cmax ([1]; 2 mg, multiple dose, steady state, Schedule B (14 days on, 7 days off), n = 1): 279 ng/mL
AUC(0-t) ([1]; 2 mg, multiple dose, steady state, Schedule C (7 days on, 14 days off), 2.0 mg, n = 5, read-out: AUC(0–24), GM (%CV)): 8560 ng·h/mL
AUC(0-t) ([1]; 2 mg, multiple dose, steady state, Schedule C (7 days on, 14 days off), 2.0 mg, n = 5, read-out: AUC(0–T), GM (%CV)): 19900 ng·h/mL
half-life ([1]; 2 mg, multiple dose, steady state, Schedule C (7 days on, 14 days off), 2.0 mg, n = 5, read-out: Effective T1/2, mean (SD) (converted)): 31.6 h
Tmax ([1]; 2 mg, multiple dose, steady state, Schedule C (7 days on, 14 days off), 2.0 mg, n = 5, read-out: Tmax, median (range)): 1 h
Cmax ([1]; 2 mg, multiple dose, steady state, Schedule C (7 days on, 14 days off), n = 5): 520 ng/mL
AUC(0-t) ([1]; 3 mg, multiple dose, steady state, Schedule A (5 days on, 2 days off), 3.0 mg, n = 7, read-out: AUC(0–24), GM (%CV)): 9820 ng·h/mL
half-life ([1]; 3 mg, multiple dose, steady state, Schedule A (5 days on, 2 days off), 3.0 mg, n = 7, read-out: Effective T1/2, mean (SD) (converted)): 25.7 h
AUC(0-t) ([1]; 3 mg, multiple dose, steady state, Schedule A (5 days on, 2 days off), 3.0 mg, n = 8, read-out: AUC(0–T), GM (%CV)): 13400 ng·h/mL
Tmax ([1]; 3 mg, multiple dose, steady state, Schedule A (5 days on, 2 days off), 3.0 mg, n = 8, read-out: Tmax, median (range)): 2.01 h
Cmax ([1]; 3 mg, multiple dose, steady state, Schedule A (5 days on, 2 days off), n = 8): 624 ng/mL
AUC(0-t) ([1]; 3 mg, multiple dose, steady state, Schedule B (14 days on, 7 days off), 3.0 mg, n = 1, read-out: AUC(0–24), GM (%CV)): 13300 ng·h/mL
AUC(0-t) ([1]; 3 mg, multiple dose, steady state, Schedule B (14 days on, 7 days off), 3.0 mg, n = 1, read-out: AUC(0–T), GM (%CV)): 34000 ng·h/mL
half-life ([1]; 3 mg, multiple dose, steady state, Schedule B (14 days on, 7 days off), 3.0 mg, n = 1, read-out: Effective T1/2, mean (SD) (converted)): 37.3 h
Tmax ([1]; 3 mg, multiple dose, steady state, Schedule B (14 days on, 7 days off), 3.0 mg, n = 1, read-out: Tmax, median (range)): 1 h
Cmax ([1]; 3 mg, multiple dose, steady state, Schedule B (14 days on, 7 days off), n = 1): 855 ng/mL
half-life ([1]; 3 mg, multiple dose, steady state, Schedule C (7 days on, 14 days off), 3.0 mg, n = 7, read-out: Effective T1/2, mean (SD) (converted)): 27.3 h
AUC(0-t) ([1]; 3 mg, multiple dose, steady state, Schedule C (7 days on, 14 days off), 3.0 mg, n = 8, read-out: AUC(0–24), GM (%CV)): 8640 ng·h/mL
AUC(0-t) ([1]; 3 mg, multiple dose, steady state, Schedule C (7 days on, 14 days off), 3.0 mg, n = 8, read-out: AUC(0–T), GM (%CV)): 18300 ng·h/mL
Tmax ([1]; 3 mg, multiple dose, steady state, Schedule C (7 days on, 14 days off), 3.0 mg, n = 8, read-out: Tmax, median (range)): 1.66 h
Cmax ([1]; 3 mg, multiple dose, steady state, Schedule C (7 days on, 14 days off), n = 8): 588 ng/mL
AUC(0-t) ([1]; 4.5 mg, multiple dose, steady state, Schedule A (5 days on, 2 days off), 4.5 mg, n = 8, read-out: AUC(0–24), GM (%CV)): 14600 ng·h/mL
AUC(0-t) ([1]; 4.5 mg, multiple dose, steady state, Schedule A (5 days on, 2 days off), 4.5 mg, n = 8, read-out: AUC(0–T), GM (%CV)): 29500 ng·h/mL
half-life ([1]; 4.5 mg, multiple dose, steady state, Schedule A (5 days on, 2 days off), 4.5 mg, n = 8, read-out: Effective T1/2, mean (SD) (converted)): 27.3 h
Tmax ([1]; 4.5 mg, multiple dose, steady state, Schedule A (5 days on, 2 days off), 4.5 mg, n = 8, read-out: Tmax, median (range)): 2 h
Cmax ([1]; 4.5 mg, multiple dose, steady state, Schedule A (5 days on, 2 days off), n = 8): 898 ng/mL
half-life ([1]; 4.5 mg, multiple dose, steady state, Schedule C (7 days on, 14 days off), 4.5 mg, n = 5, read-out: Effective T1/2, mean (SD) (converted)): 27.6 h
AUC(0-t) ([1]; 4.5 mg, multiple dose, steady state, Schedule C (7 days on, 14 days off), 4.5 mg, n = 7, read-out: AUC(0–24), GM (%CV)): 11300 ng·h/mL
AUC(0-t) ([1]; 4.5 mg, multiple dose, steady state, Schedule C (7 days on, 14 days off), 4.5 mg, n = 7, read-out: AUC(0–T), GM (%CV)): 20000 ng·h/mL
Tmax ([1]; 4.5 mg, multiple dose, steady state, Schedule C (7 days on, 14 days off), 4.5 mg, n = 7, read-out: Tmax, median (range)): 2 h
Cmax ([1]; 4.5 mg, multiple dose, steady state, Schedule C (7 days on, 14 days off), n = 7): 901 ng/mL
half-life ([1]; multiple dose, Schedule A, read-out: Mean effective T1/2, range): 25.7 to 36 h
half-life ([1]; multiple dose, Schedule B, read-out: Mean effective T1/2, range): 14.4 to 37.3 h
half-life ([1]; multiple dose, Schedule C, read-out: Mean effective T1/2, range): 27.3 to 31.6 h
AUC(0-t) ([1]; multiple doses, Schedule A, 0.75–4.5-mg doses, read-out: Geometric mean AUC(0–T), range): 3450 to 29500 ng·h/mL
AUC(0-t) ([1]; multiple doses, Schedule A, read-out: AUC(0–24), range): 2720 to 14600 ng·h/mL
AUC(0-t) ([1]; multiple doses, Schedule B, 2.0–3.0-mg dose groups, read-out: Geometric mean AUC(0–T), range): 6320 to 34000 ng·h/mL
AUC(0-t) ([1]; multiple doses, Schedule B, read-out: AUC(0–24), range): 3430 to 13300 ng·h/mL
AUC(0-t) ([1]; multiple doses, Schedule C, 2.0–4.5 mg, read-out: Geometric mean AUC(0–T), range): 18300 to 20000 ng·h/mL
AUC(0-t) ([1]; multiple doses, Schedule C, read-out: AUC(0–24), range): 8560 to 11300 ng·h/mL
Tmax ([1]; multiple-dose administration, read-out: Tmax, range across all doses and schedules): 1 to 3.14 h
Dose proportionality of PK profile ([1]; multiple-dose administration, Schedule C): less than dose proportional
SMILES: Cc1nnn(C)c1-c1cnc2c3ccc(C(C)(C)O)cc3n([C@H](c3ccccc3)C3CCOCC3)c2c1 [BMS-986158]
Dose proportionality of PK profile ([1]; multiple-dose administration, Schedule A): approximately dose proportional; also recorded: dose-proportional PK profile
Effect on ΔQTcF ([2]; single dose of BMS-986158): neither BMS-986158 nor its metabolite had a statistically significant effect; also recorded: not found to cause significant QTc prolongation
Predicted increase in ΔQTcF at highest observed Cmax ([2]; single dose, linear mixed-effects model): < 5 ms
HEXIM1 mRNA expression change from baseline (HEXIM1 mRNA): dose dependently upregulated; also recorded: transcriptional activation
